Reference: ChEMBL document CHEMBL1641539 (Bioorg Med Chem Lett, 2011)

Tests used:
[1] = biological target: Tyrosine-protein kinase CSK (Homo sapiens) (UniProt P41240); assay: Inhibition of human CSK at 10 uM after 60 mins by TR-FRET assay; values are per cent of control
[2] = biological target: Serine/threonine-protein kinase ULK2 (Homo sapiens) (UniProt Q8IYT8); assay: Inhibition of human ULK2 at 10 uM after 60 mins by TR-FRET assay; values are per cent of control
[3] = test system: Tyrosine-protein kinase ABL1 (Homo sapiens), P00519 [M351T]; assay: Inhibition of human Abl M351T mutant at 10 uM after 60 mins by TR-FRET assay; values are per cent of control
[4] = biological target: Serine/threonine-protein kinase TAO2 (Homo sapiens) (UniProt Q9UL54); assay: Inhibition of human TAO2 at 10 uM after 60 mins by TR-FRET assay; values are per cent of control
Chain of Serine/threonine-protein kinase TAO2 (Homo sapiens) (Q9UL54 whole entry): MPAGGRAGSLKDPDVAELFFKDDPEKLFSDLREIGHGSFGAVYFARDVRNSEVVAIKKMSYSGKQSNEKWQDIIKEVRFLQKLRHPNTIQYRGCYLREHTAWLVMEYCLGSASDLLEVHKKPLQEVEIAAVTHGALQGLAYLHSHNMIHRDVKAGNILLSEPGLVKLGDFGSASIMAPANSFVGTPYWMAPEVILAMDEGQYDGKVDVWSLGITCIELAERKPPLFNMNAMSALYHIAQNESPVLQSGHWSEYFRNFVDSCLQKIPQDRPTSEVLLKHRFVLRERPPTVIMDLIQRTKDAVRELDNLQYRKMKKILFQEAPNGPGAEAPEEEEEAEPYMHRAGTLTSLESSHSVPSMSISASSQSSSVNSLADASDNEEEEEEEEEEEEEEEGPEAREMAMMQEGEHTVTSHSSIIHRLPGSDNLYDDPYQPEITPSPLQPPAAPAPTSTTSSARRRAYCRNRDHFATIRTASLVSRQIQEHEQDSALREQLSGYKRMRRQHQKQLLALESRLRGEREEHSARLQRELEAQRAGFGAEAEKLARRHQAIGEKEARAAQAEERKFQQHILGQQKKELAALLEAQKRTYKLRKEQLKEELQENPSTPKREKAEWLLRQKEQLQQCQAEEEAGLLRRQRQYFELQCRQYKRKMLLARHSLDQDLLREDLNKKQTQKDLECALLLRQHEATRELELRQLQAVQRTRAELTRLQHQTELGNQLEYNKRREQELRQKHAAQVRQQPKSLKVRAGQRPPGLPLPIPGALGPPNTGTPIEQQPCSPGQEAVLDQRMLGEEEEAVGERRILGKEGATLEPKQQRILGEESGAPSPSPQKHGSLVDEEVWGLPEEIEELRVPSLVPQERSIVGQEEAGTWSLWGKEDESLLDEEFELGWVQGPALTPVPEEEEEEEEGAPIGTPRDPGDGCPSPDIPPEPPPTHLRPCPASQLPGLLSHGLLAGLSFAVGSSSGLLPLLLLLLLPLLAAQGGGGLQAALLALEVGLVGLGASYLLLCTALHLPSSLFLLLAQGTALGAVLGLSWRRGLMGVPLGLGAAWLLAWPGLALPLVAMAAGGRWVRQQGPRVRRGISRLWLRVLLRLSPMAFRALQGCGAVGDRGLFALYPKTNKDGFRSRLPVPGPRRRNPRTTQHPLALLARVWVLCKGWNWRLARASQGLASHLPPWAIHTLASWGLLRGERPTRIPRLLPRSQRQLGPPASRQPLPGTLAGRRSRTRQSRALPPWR

[5] = biological target: MAP kinase-activated protein kinase 5 (Homo sapiens) (UniProt Q8IW41); assay: Residual activity of human PRAK at 10 uM after 60 mins by TR-FRET assay
[6] = biological target: MAP kinase-activated protein kinase 3 (Homo sapiens) (UniProt Q16644); assay: Inhibition of human MAPKAP-K3 at 10 uM after 60 mins by TR-FRET assay; values are per cent of control
[7] = biological target: PAS domain-containing serine/threonine-protein kinase (Homo sapiens) (UniProt Q96RG2); assay: Inhibition of human PASK at 10 uM after 60 mins by TR-FRET assay; values are per cent of control
[8] = biological target: Tyrosine-protein kinase receptor TYRO3 (Homo sapiens) (UniProt Q06418); assay: Inhibition of human Rse at 10 uM after 60 mins by TR-FRET assay; details: values are per cent of control
[9] = biological target: Tyrosine-protein kinase ABL1 (Mus musculus) (UniProt P00520); assay: Inhibition of mouse Abl at 10 uM after 60 mins by TR-FRET assay; values are per cent of control
[10] = biological target: cGMP-dependent protein kinase 1 (Homo sapiens) (UniProt Q13976); assay: Inhibition of human PKG1beta at 10 uM after 60 mins by TR-FRET assay; values are per cent of control
[11] = biological target: Rhodopsin kinase GRK7 (Homo sapiens) (UniProt Q8WTQ7); assay: Inhibition of human GRK7 at 10 uM after 60 mins by TR-FRET assay; values are per cent of control
[12] = biological target: Serine/threonine-protein kinase PAK 6 (Homo sapiens) (UniProt Q9NQU5); assay: Inhibition of human PAK6 at 10 uM after 60 mins by TR-FRET assay; values are per cent of control
[13] = biological target: Interleukin-1 receptor-associated kinase 1 (Homo sapiens) (UniProt P51617); assay: Inhibition of human IRAK1 at 10 uM after 60 mins by TR-FRET assay; details: values are per cent of control
[14] = biological target: Serine/threonine-protein kinase Nek2 (Homo sapiens) (UniProt P51955); assay: Inhibition of human NEK2 at 10 uM after 60 mins by TR-FRET assay; values are per cent of control
[15] = biological target: Ephrin type-A receptor 2 (Homo sapiens) (UniProt P29317); assay: Inhibition of human EphA2 at 10 uM after 60 mins by TR-FRET assay; values are per cent of control
Chain of Ephrin type-A receptor 2 (Homo sapiens) (P29317 whole entry): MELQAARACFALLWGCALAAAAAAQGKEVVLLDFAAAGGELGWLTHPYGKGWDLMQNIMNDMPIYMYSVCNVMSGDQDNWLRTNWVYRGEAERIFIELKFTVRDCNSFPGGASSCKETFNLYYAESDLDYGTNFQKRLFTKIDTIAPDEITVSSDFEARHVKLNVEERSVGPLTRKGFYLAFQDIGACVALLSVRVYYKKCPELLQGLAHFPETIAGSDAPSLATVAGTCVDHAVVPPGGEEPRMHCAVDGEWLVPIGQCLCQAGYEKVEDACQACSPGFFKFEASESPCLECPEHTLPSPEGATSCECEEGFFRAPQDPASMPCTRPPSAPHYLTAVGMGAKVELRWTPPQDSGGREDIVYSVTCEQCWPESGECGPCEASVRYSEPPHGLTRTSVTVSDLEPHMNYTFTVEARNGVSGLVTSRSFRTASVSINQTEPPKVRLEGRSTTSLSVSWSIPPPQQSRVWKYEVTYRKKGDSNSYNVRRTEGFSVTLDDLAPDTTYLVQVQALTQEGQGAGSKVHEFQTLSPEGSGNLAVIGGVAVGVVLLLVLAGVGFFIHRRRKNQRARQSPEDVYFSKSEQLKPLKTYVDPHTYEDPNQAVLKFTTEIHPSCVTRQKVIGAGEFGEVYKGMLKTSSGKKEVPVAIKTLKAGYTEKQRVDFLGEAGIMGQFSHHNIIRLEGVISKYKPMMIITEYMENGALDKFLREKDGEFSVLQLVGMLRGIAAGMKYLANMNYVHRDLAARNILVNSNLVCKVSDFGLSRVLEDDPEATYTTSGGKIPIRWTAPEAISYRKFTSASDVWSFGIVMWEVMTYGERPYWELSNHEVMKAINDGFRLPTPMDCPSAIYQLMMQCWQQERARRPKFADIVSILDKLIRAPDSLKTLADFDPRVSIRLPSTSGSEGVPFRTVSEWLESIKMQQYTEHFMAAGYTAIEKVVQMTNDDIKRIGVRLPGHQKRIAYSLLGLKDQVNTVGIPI

[16] = biological target: Tyrosine-protein kinase ABL2 (Homo sapiens) (UniProt P42684); assay: Inhibition of human Arg at 10 uM after 60 mins by TR-FRET assay; values are per cent of control
[17] = biological target: ALK tyrosine kinase receptor (Homo sapiens) (UniProt Q9UM73); assay: Inhibition of human ALK at 10 uM after 60 mins by TR-FRET assay; values are per cent of control
Chain of ALK tyrosine kinase receptor (Homo sapiens) (Q9UM73 19-1620 limits assumed): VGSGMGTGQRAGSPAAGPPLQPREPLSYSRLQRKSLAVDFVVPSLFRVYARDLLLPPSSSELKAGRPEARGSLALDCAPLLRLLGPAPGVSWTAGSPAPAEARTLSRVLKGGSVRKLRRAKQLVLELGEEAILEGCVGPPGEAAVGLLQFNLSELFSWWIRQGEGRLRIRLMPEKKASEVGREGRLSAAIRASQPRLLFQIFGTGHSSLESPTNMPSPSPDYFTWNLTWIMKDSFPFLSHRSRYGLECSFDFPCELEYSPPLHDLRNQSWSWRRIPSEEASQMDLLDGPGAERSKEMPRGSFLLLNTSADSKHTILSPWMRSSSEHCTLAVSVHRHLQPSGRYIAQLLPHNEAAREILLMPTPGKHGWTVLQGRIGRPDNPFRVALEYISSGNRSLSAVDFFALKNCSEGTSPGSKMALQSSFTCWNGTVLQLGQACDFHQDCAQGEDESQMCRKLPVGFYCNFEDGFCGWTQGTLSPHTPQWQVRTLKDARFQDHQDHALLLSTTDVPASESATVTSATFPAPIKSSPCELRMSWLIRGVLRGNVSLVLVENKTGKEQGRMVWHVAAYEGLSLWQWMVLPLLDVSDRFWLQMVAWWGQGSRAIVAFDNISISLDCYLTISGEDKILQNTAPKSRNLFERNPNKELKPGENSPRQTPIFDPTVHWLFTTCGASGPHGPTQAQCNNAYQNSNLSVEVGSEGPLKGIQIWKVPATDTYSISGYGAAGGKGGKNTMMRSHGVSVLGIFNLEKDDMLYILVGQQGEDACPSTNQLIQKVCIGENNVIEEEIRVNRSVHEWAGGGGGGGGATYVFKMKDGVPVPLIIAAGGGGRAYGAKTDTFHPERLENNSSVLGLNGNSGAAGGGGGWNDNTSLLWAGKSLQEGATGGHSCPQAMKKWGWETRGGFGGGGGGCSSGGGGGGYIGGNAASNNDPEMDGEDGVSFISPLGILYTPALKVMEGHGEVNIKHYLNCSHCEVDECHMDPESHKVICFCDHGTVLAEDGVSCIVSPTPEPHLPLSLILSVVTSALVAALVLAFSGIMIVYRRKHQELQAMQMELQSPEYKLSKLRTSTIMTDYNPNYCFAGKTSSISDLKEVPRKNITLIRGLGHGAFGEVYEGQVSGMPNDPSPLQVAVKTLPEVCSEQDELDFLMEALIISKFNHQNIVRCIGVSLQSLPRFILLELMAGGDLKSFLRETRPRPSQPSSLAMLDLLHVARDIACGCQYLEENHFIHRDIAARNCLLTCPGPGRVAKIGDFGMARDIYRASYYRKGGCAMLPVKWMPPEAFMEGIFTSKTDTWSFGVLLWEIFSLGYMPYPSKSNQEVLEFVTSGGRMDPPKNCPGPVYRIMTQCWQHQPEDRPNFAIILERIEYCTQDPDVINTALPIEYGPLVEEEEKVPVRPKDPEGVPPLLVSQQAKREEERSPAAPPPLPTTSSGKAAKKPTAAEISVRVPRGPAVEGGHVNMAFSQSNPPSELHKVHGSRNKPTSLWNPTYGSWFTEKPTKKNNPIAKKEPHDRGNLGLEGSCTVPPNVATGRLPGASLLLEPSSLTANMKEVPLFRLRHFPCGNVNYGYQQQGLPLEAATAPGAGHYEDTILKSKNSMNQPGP

[18] = biological target: Tyrosine-protein kinase JAK2 (Homo sapiens) (UniProt O60674); assay: Inhibition of human JAK2 at 10 uM after 60 mins by TR-FRET assay; details: values are per cent of control
Chain of Tyrosine-protein kinase JAK2 (Homo sapiens) (O60674 whole entry): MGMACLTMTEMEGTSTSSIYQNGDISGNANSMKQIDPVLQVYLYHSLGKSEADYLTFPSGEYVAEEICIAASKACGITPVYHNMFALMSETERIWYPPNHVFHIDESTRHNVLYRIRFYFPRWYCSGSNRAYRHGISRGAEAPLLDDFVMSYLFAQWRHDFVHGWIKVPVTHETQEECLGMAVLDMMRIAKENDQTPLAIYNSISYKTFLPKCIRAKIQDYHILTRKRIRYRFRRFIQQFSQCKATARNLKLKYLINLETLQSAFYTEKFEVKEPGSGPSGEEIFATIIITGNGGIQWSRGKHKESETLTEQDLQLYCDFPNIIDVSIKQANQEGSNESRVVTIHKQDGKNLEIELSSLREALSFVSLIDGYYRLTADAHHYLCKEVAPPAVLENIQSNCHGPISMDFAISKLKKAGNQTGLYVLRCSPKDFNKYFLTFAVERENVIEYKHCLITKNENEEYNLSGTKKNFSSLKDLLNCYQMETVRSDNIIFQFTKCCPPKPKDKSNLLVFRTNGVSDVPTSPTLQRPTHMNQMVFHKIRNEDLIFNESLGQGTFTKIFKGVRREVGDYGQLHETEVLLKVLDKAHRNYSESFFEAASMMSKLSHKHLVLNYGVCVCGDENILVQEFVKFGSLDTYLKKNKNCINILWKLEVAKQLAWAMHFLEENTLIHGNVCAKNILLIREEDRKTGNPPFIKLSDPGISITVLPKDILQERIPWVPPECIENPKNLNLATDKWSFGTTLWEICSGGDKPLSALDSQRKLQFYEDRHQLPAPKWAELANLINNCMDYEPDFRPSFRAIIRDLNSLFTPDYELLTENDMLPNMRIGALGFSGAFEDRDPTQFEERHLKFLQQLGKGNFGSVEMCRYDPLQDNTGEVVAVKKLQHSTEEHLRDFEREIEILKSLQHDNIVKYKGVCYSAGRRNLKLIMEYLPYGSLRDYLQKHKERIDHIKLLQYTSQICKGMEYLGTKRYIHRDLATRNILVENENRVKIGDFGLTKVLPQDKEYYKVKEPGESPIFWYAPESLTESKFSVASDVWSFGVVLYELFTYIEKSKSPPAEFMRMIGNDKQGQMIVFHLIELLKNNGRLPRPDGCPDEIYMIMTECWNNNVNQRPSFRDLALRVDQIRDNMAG

[19] = biological target: Casein kinase II (Homo sapiens) (UniProt P67870+P68400+P19784); assay: Inhibition of human CK2 at 10 uM after 60 mins by TR-FRET assay; values are per cent of control

A residual activity [1] of 100%, a residual activity [2] of 103% and a residual activity [3] of 109% were found for S=c1[nH]nc(-c2ccncc2)n1-c1ccc2ccccc2c1 in this work. For the same molecule, the residual activity [4] was 103%, the residual activity [5] was 119% and the residual activity [6] was 112%. It also gave a residual activity [7] of 99%, a residual activity [8] of 116% and a residual activity [9] of 94%. The residual activity [10] was 109%, the residual activity [11] was 124% and the residual activity [12] was 103%. It also gave a residual activity [13] of 113%, a residual activity [14] of 110% and a residual activity [15] of 102%. It also gave a residual activity [16] of 109%, a residual activity [17] of 101% and a residual activity [18] of 110%. It also gave a residual activity [19] of 110%.
